Laboratory results: PMC8547461, “An Intracellular Sensing and Signal Transduction System That Regulates the Metabolism of Polycyclic Aromatic Hydrocarbons in Bacteria” (mSystems, 2021)
“And” between values parts separate entries of the source, which are not always exact repeats. Identical values can stand only once. Like-named read-outs stand apart in the source and are kept apart here. One block for each compound: values may come before it.

Columns and labels:
[1] = test system: DPR-2 (Cycloclasticus sp. strain P1); test: SPR; details: biotin-DNA on streptavidin chip, DPR 0-100 nM, with or without 80 nM c-di-GMP, 25 C, 30 ul/min, 150 s association/150 s dissociation, 1:1 fit, buffer …
DPR-1 [2] = biological target: DPR-1 (Cycloclasticus sp. P1, UniProt K0C5A9); test: SPR binding of cyclic nucleotides to DPR-1 sensor chip
DPR-1 (Cycloclasticus sp. P1, UniProt K0C5A9), sequence (K0C5A9 1-242): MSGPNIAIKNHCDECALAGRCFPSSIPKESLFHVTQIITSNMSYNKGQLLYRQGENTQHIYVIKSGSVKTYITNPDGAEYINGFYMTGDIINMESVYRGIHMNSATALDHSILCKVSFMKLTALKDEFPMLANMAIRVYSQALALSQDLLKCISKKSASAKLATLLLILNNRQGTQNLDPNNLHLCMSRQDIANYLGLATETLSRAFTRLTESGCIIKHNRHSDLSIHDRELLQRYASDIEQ

DPR-2 [3] = biological target: DPR-2 (Cycloclasticus sp. P1, UniProt K0C733); test: SPR binding of cyclic nucleotides to DPR-2 sensor chip; details: for Ka: DPR-2
DPR-2 (Cycloclasticus sp. P1, UniProt K0C733), sequence (K0C733 1-238): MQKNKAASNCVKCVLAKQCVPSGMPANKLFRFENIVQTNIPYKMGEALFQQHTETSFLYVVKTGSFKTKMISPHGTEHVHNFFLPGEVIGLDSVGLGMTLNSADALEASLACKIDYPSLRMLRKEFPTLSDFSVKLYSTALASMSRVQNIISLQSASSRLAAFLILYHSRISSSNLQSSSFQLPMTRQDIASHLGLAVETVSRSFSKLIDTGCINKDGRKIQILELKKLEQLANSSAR

[4] = test system: DPR-1 (Cycloclasticus sp. strain P1); test: SPR; details: biotin-DNA on streptavidin chip, DPR 0-100 nM, with or without 80 nM c-di-GMP, 25 C, 30 ul/min, 150 s association/150 s dissociation, 1:1 fit, buffer …
[5] = test system: wild-type Cycloclasticus sp. strain P1; test: Intracellular c-di-GMP quantification (HPLC-MS/MS), wild type; type: cell-based; details: for intracellular concentration of c-di-GMP vs PAH-absent control: wild-type strain P1, after exposure to PAH, 48 h
Experimental: Intracellular c-di-GMP levels were determined using high-performance liquid chromatography tandem mass spectrometry (HPLC-MS/MS), as previously described ([66]), with the following modifications. Strain P1 cells, obtained from OD-adjusted overnight precultures, were inoculated onto various PAH substrates and grown for 48 h in triplicate. Bacterial pellets were resuspended in 0.2% ice-cold formaldehyde at a concentration of 300 mg wet weight/ml, incubated on ice for 10 min, and then centrifuged at 10,000 × g for 15 min. Each pellet was then resuspended in […] of H2O. After extracting nucleotides using ethanol extraction ([67]), samples were dried under a vacuum, reconstituted in […] of H2O via vigorous vortexing and sonication for 5 min, and finally centrifuged for 15 min at 10,000 × g. The supernatants were analyzed at 55°C using an Agilent 1200 HPLC system with a C18 ACE 3 AQ 150- by 2.1-mm column and the corresponding column guard. The mobile phase consisted of 0.1% formic acid run in an H2O-acetonitrile gradient at a flow rate of 300 μl/min, reaching 50% acetonitrile in 15 min. MS analysis was then performed via negative ion electrospray from the Agilent HPLC system into a Bruker HCT Plus ion trap in multiple reaction mode. Using SmartFrag (HyStar software), the trap was set to isolate fragment ions at m/z 688.9 (with a monitored mass range of m/z 450 to 700) from a full scan. Data Analysis v3.3 was used to interrogate the acquisitions, and the extracted ion chromatograms of m/z 538 were produced from the negative-ion MS/MS of m/z 688.9. The retention times and peak spectra were matched to the injected standard (c-di-GMP; Biolog LifeScience Institute, Bremen, Germany) at intervals throughout the run. Peak areas and relative c-di-GMP levels were normalized to the levels obtained with the injected standard. A solution of 1 mg/ml c-di-GMP standard in water was diluted to prepare the spiking solutions with 100 ng/ml, 200 ng/ml, 300 ng/ml, 400 ng/ml, 500 ng/ml, 600 ng/ml, 700 ng/ml, 800 ng/ml, and 900 ng/ml c-di-GMP standard. Extractions and quantifications were all performed in triplicate. The amount of c-di-GMP detected in the blank was subtracted from that detected in the spiked calibrants, and the analysis was calibrated using a linear regression (r^2 = 0.993). To obtain an estimate of c-di-GMP concentration per unit of cellular biomass, the c-di-GMP concentration was divided by the measured OD600 of the original culture.

PdgC [6] = biological target: T1, PdgC (Cycloclasticus sp. P1, UniProt K0C005); set-up: method as in PMID 30171002; details: in the presence of PAH; cited from earlier work
T1 sequence (K0C005 1-445): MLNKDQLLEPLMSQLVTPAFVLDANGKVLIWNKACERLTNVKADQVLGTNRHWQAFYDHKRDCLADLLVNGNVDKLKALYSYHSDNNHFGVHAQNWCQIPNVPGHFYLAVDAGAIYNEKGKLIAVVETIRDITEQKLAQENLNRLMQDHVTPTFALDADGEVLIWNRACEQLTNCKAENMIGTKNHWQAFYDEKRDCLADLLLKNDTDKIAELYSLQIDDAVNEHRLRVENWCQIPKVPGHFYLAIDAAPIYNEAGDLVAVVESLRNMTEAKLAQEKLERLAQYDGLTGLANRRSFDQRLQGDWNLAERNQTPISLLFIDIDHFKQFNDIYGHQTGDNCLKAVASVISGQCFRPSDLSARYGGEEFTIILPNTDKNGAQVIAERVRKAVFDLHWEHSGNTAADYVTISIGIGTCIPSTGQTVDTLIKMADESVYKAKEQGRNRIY

[7] = test system: PdgC^L68A/V73A/K77G/I115G; test: SPR binding of PAHs to four-site mutated PdgC sensor chip; set-up: species or system Cycloclasticus sp. strain P1; details: four-site mutation PdgC; for Kd: read-out: affinity constant (KD)
Experimental: (§1) The immobilization of the PdgC PAS domain on the sensor surface was carried out as previously described ([68]). Briefly, PdgC was diluted in 10 mM sodium acetate (pH 5.5) and immobilized on a CM5 sensor chip using the amine coupling method by following the manufacturer’s protocol. SPR measurements were performed using a Biacore T200 system (GE Healthcare, Sweden).
(§2) PAH compounds were diluted in running buffer (phosphate-buffered saline [PBS] containing 5% DMSO) to a concentration of 50 μM. Running buffer alone (PBS containing 5% DMSO, without PAHs) served as the negative control. All solutions were then injected into the PdgC sensor surface for 120 s at a flow rate of 30 μl/min. Sensograms of these PAHs were recorded and analyzed. Analytes were injected through the reference and active channels at a flow rate of 30 μl/min. The association and dissociation times were both 120 s. Affinity fitting (determination of the affinity constant, KD) was performed using Biacore T200 evaluation software with a 1:1 binding mode.

PdgC [8] = biological target: T1, PdgC; test: SPR binding of PAHs to PdgC sensor chip; set-up: species or system Cycloclasticus sp. strain P1; details: wild-type PdgC; for Kd: 20°C, read-out: affinity constant (KD)
Experimental: as §1
as §2, with “Analytes were injected through the reference and active channels at a flow rate of 30 μl/min.” left out

DPR-2 [9] = test: Expression of dpr-2 in wild-type P1 (real-time PCR); details: wild-type strain P1 grown on PAH, control sodium acetate
Experimental: Cycloclasticus sp. strain P1 and mutant strain PARP1 were grown in 200 ml of MMC medium containing the appropriate antibiotics, with sodium acetate or PAHs as the carbon source, in 500 ml Erlenmeyer flasks at 28°C on a rotary shaker (200 rpm). Bacterial growth was monitored based on optical density (OD600). Total RNA was extracted using the RNeasy minikit (Qiagen, Valencia, CA, USA) according to the manufacturer’s protocols and subsequently treated with DNase I (Invitrogen, Carlsbad, CA, USA). The RNA yield was estimated using a NanoDrop UV spectrometer (Thermo Scientific, Wilmington, DE, USA). […] To calculate the number of viable bacteria present, 16S rRNA gene copy numbers were determined using quantitative real-time PCR.
Quantitative real-time PCRs were performed using IQ SYBR green Supermix and the IQ5 multicolor real-time PCR detection system (Bio-Rad, CA, USA). […] Fluorescence data were acquired at the end of the elongation step. […]
The samples were quantified using a calibration curve that was generated in parallel. A standard quantification curve was generated for each of the tested genes based on a serial dilution of a known amount of target DNA (from 10 to 10^6 copies) utilizing the optimal PCR conditions described above. […]

DPR-1 [10] = test: Expression of dpr-1 in wild-type P1 (real-time PCR); details: wild-type strain P1 grown on PAH, control sodium acetate
Experimental: Cycloclasticus sp. strain P1 and mutant strain PARP1 were grown in 200 ml of MMC medium containing the appropriate antibiotics, with sodium acetate or PAHs as the carbon source, in 500 ml Erlenmeyer flasks at 28°C on a rotary shaker (200 rpm). Bacterial growth was monitored based on optical density (OD600). Total RNA was extracted using the RNeasy minikit (Qiagen, Valencia, CA, USA) according to the manufacturer’s protocols and subsequently treated with DNase I (Invitrogen, Carlsbad, CA, USA). The RNA yield was estimated using a NanoDrop UV spectrometer (Thermo Scientific, Wilmington, DE, USA). Approximately 4 μg of RNA was reverse transcribed using 20 ng of random primers (Invitrogen, Carlsbad, CA, USA) and PrimeScript reverse transcriptase (TaKaRa, Dalian, China). Control reactions were performed in the absence of reverse transcriptase to verify the absence of genomic DNA. To calculate the number of viable bacteria present, 16S rRNA gene copy numbers were determined using quantitative real-time PCR.
Quantitative real-time PCRs were performed using IQ SYBR green Supermix and the IQ5 multicolor real-time PCR detection system (Bio-Rad, CA, USA). The reactions were performed in 96-well optical plates sealed with optical caps. […] Fluorescence data were acquired at the end of the elongation step. […]
The samples were quantified using a calibration curve that was generated in parallel. A standard quantification curve was generated for each of the tested genes based on a serial dilution of a known amount of target DNA (from 10 to 10^6 copies) utilizing the optimal PCR conditions described above. […] Based on the calibration curve (determined using IQ^5 multicolor real-time PCR detection system software), the initial copy number of each target mRNA was calculated for each sample. The calculated values were normalized to the expression of the 16S rRNA gene to yield the number of copies of each mRNA transcript in 1,000 wild-type Cycloclasticus sp. strain P1 or mutant cells.

PdgC [11] = biological target: T1, PdgC; test: PdgC enzymatic activity assay (Enzchek pyrophosphate assay); details: PAH 2 μM, inorganic pyrophosphate assay
Experimental: Assays were performed using the Enzchek pyrophosphate assay kit (Invitrogen). […] In addition, the pyrophosphatase in the kit was replaced by 0.4 U/ml pyrophosphatase (Sigma). […] The accumulation of phosphate was monitored over time at OD360.

DPR-1 [12] = test: SPR (Biacore T200) with DPR-1, DPR-2 or their quadruple mutants immobilized on CM5 chips and cyclic nucleotides injected in 20 mM MOPS pH 8.0, 300 mM NaCl, 0.005% P20, 0.1 mg/ml BSA at 30 ul/min; 20 °C in results, 25 °C in methods; 1:1 binding fit (legend: steady-state affinity model).; details: read-out: affinity constant (KD); n = 3
Experimental: (§3) The interactions between DPR and secondary message molecules, including c-di-GMP, c-di-AMP, and cyclic AMP (cAMP), were examined using SPR assays.
(§4) SPR data for the binding of c-di-GMP to DPR-1 or DPR-2 (A) and DPR-1^L93A/D94A/T101A/L102A or DPR-2^L91A/D92A/T99A/L100A (B). […] The values of the affinity constant (KD) were calculated by global fitting, using a steady-state affinity model. Data were representatives of three independent experiments.
(§5) The values of the affinity constant (KD) were calculated by global fitting, using a steady-state affinity model. Data were representative of three independent experiments.
(§6) To reconfirm this binding model, site mutations were introduced into DPR-2 (or DPR-1) at L91/A91, D92/A92, T99/A99, and L100/A100, resulting in a quadruple mutated protein, DPR-2^L91A/D92A/T99A/L100A (or DPR-1^L93A/D94A/T101A/L102A). […]
(§7) We covalently immobilized 50 μg/ml DPR-1 and DPR-2 in 10 mM sodium acetate buffer (pH 5.5) onto separate CM5 sensor chips (GE Healthcare), using standard primary amine coupling procedures. […] After double referencing by subtracting the signal of the reference flow cell and the curve of the buffer injection, KD values for c-di-GMP binding to the DPRs immobilized on the sensor chip surface were calculated using reference points at the end of the association phase. Values were calculated with Biacore T200 evaluation software using a 1:1 binding mode.

DPR-2 [13] = test: as above; details: read-out: affinity constant (KD); n = 3
Experimental: as §3, §4, §5, §6, §7

[14] = no c-di-GMP, value order assumed as in Fig. 7 legend

Compound: PQ91_2220-2218
Kd [1]: 0.00059 µM | Kd [1, 14]: 0.78 µM

Ka (DPR-1 [2]; DPR-1): 6.58e3 M^-1S^-1 | Kd (DPR-1 [2]; DPR-1): 2.73e-2 S^-1 | Ka (DPR-2 [3]): 6.16e3 M^-1S^-1
Compound: Nc1ncnc2c1ncn2[C@@H]1O[C@@H]2COP(=O)(O)O[C@H]3[C@@H](O)[C@H](n4cnc5c(N)ncnc54)O[C@@H]3COP(=O)(O)O[C@H]2[C@H]1O [c-di-AMP]

Compound: PQ91_2244-2242
Kd [1]: 0.0064 µM | Kd [1, 14]: 0.63 µM

Compound: Nc1ncnc2c1ncn2[C@@H]1O[C@@H]2COP(=O)(O)O[C@H]2[C@H]1O [cAMP, cyclic AMP]
Ka (DPR-1 [2]; DPR-1): 4.15e3 M^-1S^-1 | Kd (DPR-1 [2]; DPR-1): 1.35e-2 S^-1 | Kd (DPR-1 [2]; read-out: affinity constant (KD), DPR-1, 20°C): 3.3 µM | Ka (DPR-2 [3]): 5.33e3 M^-1S^-1 | Kd (DPR-2 [3]; read-out: affinity constant (KD), DPR-2, 20°C): 3.5 µM

Compound: PQ91_0869
Kd [4]: 0.0033 µM | Kd ([4]; no c-di-GMP): 0.69 µM

Compound: c1ccc2ccccc2c1 [naphthalene]
intracellular concentration of c-di-GMP vs PAH-absent control [5]: 8- to 10 fold | pdgC upregulation (PdgC [6]): 6.5- to 8.0 fold | Ka [7]: 7.6e2 M-1S-1 | Kd ([7]; listed as Naphthalene): 78 µM | Kd [7]: ~100 µM | Ka (PdgC [8]): 5.51e5 M^-1S^-1 | DPR-2 expression (DPR-2 [9]): slightly upregulated | DPR-1 expression (DPR-1 [10]): slightly upregulated

Compound: PQ91_2227-2224
Kd [1]: 0.00071 µM | Kd [1, 14]: 0.62 µM

Compound: c1cc2ccc3cccc4ccc(c1)c2c34 [pyrene]
PdgC activity in vitro (PdgC [11]): active only in the presence of PAHs | c-di-GMP production higher than that caused by naphthalene or phenanthrene ([5]; wild-type strain P1): 30 to 35% | intracellular concentration of c-di-GMP vs PAH-absent control [5]: 8- to 10 fold | pdgC upregulation (PdgC [6]): 6.5- to 8.0 fold | Kd ([7]; listed as Pyrene): 100 µM | Kd [7]: ~100 µM | Ka (PdgC [8]): 4.12e5 M^-1S^-1 | Kd (PdgC [8]): 0.046 µM | DPR-1 expression (DPR-1 [10]): significantly upregulated

Compound: PQ91_0870-0877
Kd [4]: 0.00062 µM | Kd ([4]; no c-di-GMP, text prints 0.73 x 10^6 M, exponent sign evidently lost): 0.73 µM

Compound: c1ccc2c(c1)ccc1ccccc12 [phenanthrene]
PdgC activity in vitro (PdgC [11]): active only in the presence of PAHs | intracellular concentration of c-di-GMP vs PAH-absent control [5]: 8- to 10 fold | pdgC upregulation (PdgC [6]): 6.5- to 8.0 fold | Kd ([7]; listed as Phenanthrene): 43 µM | Kd [7]: ~100 µM | Kd (PdgC [8]): 0.046 µM | DPR-2 expression (DPR-2 [9]): slightly upregulated | DPR-1 expression (DPR-1 [10]): slightly upregulated

Kd (DPR-1 [12]): 4.1 µM | Kd (DPR-2 [13]): 2.6 µM
Compound: Nc1ncnc2c1ncn2[C@@H]1O[C@@H]2COP(=O)(O)O[C@H]3[C@@H](O)[C@H](n4cnc5c(N)ncnc54)O[C@@H]3COP(=O)(O)O[C@H]2[C@H]1O [c-di-AMP, cyclic dimeric AMP]

Ka (DPR-1 [2]; DPR-1): 3.94e5 M^-1S^-1 | Kd (DPR-1 [2]; DPR-1): 1.09e-2 S^-1 | Ka (DPR-2 [3]): 5.41e5 M^-1S^-1 | Kd (DPR-2 [3]; affinity constant (KD), DPR-2, 20°C): 0.04 µM and ~0.1 µM
Compound: Nc1nc2c(ncn2C2OC3COP(=O)(O)OC4C(COP(=O)(O)OC3C2O)OC(n2cnc3c(=O)[nH]c(N)nc32)C4O)c(=O)[nH]1 (stereo not shown) [c-di-GMP, cyclic dimeric GMP]
